# Experimental data published in patent US10472333B2, “P2X4 receptor antagonist” (NIPPON CHEMIPHAR CO., LTD., priority 2013, dated 2019).
# Counter-ions that a name gives are not always drawn.
# Biological target: T1, human P2X4 receptor (Homo sapiens, UniProt Q99571)
# T1 sequence (Q99571 1-388): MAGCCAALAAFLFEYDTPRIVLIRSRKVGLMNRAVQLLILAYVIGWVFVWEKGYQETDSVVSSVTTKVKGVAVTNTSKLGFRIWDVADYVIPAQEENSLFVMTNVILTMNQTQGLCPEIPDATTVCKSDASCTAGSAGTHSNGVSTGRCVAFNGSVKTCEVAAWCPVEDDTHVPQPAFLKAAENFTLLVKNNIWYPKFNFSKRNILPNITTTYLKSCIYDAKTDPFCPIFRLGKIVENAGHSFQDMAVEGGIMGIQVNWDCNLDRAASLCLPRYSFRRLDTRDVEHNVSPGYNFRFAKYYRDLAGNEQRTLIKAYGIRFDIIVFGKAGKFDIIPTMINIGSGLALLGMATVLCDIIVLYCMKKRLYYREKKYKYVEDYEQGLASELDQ
# Test: P2X4 receptor antagonist activity, ATP-induced intracellular calcium (Fura-2 AM) in 1321N1 cells stably expressing human P2X4 receptor
# Format: cell-based
# Conditions: not given
row,SMILES,IC50 [µM]
1,"COc1ccccc1CC(=O)Nc1ccc(C2=NCC(=O)Nc3c2ccc2ccccc32)cc1 [Example 7, 2(2-Methoxyphenyl)-N-[4-(2-oxo-2,3-dihydro-1H-naphtho[1,2-e][1,4]-diazepin-5-yl)phenyl]acetamide]",0.97
2,"CCc1c(O)cccc1C(=O)Nc1ccc(C2=NCC(=O)Nc3c2ccc2ccccc32)cc1 [Example 2, 2-Ethyl-3-hydroxy-N-[4-(2-oxo-2,3-dihydro-1H-naphtho[1,2-e][1,4]-diazepin-5-yl)phenyl]benzamide]",0.77
3,"O=C1CN=C(c2ccc(NC(=O)c3cccnc3N3CCOCC3)cc2)c2ccc3ccccc3c2N1 [Example 20, 2-(Morpholin-4-yl)-N-[4-(2-oxo-2,3-dihydro-1H-naphtho[1,2-e][1,4]-diazepin-5-yl)phenyl]nicotinamide dihydrochloride]",2.5
4,"CC(C)c1ncccc1C(=O)Nc1ccc(C2=NCC(=O)Nc3c2ccc2ccccc32)cc1 [Example 23, 2-Isopropyl-N-[4-(2-oxo-2,3-dihydro-1H-naphtho[1,2-e][1,4]diazepin-5 yl)phenyl]nicotinamide dihydrochloride]",2.3
5,"O=C1CN=C(c2ccc(NC(=O)c3cccnc3-n3cccc3)cc2)c2ccc3ccccc3c2N1 [Example 19, N-[4-(2-Oxo-2,3-dihydro-1H-naphtho[1,2-e][1,4]-diazepin-5-yl)phenyl]-2-(1H-pyrrol-1-yl)nicotinamide dihydrochloride]",2.4
6,"CCc1cccc(O)c1C(=O)Nc1ccc(C2=NCC(=O)Nc3c2ccc2ccccc32)cc1 [Example 4, 2-Ethyl-6-hydroxy-N-[4-(2-oxo-2,3-dihydro-1H-naphtho[1,2-e][1,4]-diazepin-5-yl)phenyl]benzamide]",1.5
7,"O=C1CN=C(c2ccc(NC(=O)c3cccnc3N3CCCC3)cc2)c2ccc3ccccc3c2N1 [Example 21, N-[4-(2-Oxo-2,3-dihydro-1H-naphtho[1,2-e][1,4]-diazepin-5-yl)phenyl]-2-(pyrrolidin-1-yl)nicotinamide dihydrochloride]",1.3
8,"CC(C)Nc1ncccc1C(=O)Nc1ccc(C2=NCC(=O)Nc3c2ccc2ccccc32)cc1 [Example 24, 2-(Isopropylamino)-N-[4-(2-oxo-2,3-dihydro-1H-naphtho[1,2-e][1,4]diazepin-5-yl)phenyl]nicotinamide dihydrochloride]",8.6
9,"CCc1ncccc1C(=O)Nc1ccc(C2=NCC(=O)Nc3c2ccc2ccccc32)cc1 [Example 3, 2-Ethyl-N-[4-(2-oxo-2,3-dihydro-1H-naphtho[1,2-e][1,4]-diazepin-5-yl)phenyl]nicotinamide dihydrochloride]",1.6
10,"CN(C)c1ccncc1C(=O)Nc1ccc(C2=NCC(=O)Nc3c2ccc2ccccc32)cc1 [Example 22, 4-(Dimethylamino)-N-[4-(2-oxo-2,3-dihydro-1H-naphtho[1,2-e][1,4]diazepin-5 yl)phenyl]nicotinamide dihydrochloride]",1.5

# Same assay, conditions: Table 9; 1321N1 cells expressing human P2X4; test substance 15 minutes before ATP; read-out: Inhibitory activity IC50
row,SMILES,IC50 [µM]
1,"CN(C)c1ncccc1C(=O)Nc1ccc(N2C(=O)CC(=O)Nc3c2ccc2ccccc32)cc1 [Example 14, 2-(Dimethylamino)-N-[4-(2,4-dioxo-2,3-dihydro-1H-naphtho[1,2-b][1,4]diazepin-5(2H)-yl)phenyl]nicotinamide hydrochloride]",0.59
2,"CC(C)(C)c1ccccc1C(=O)Nc1ccc(N2C(=O)CC(=O)Nc3c2ccc2ccccc32)cc1F [Example 12, 2-tert-Butyl-N-[4-(2,4-dioxo-3,4-dihydro-1H-naphtho[2,1-b][1,4]diazepin-5(2H)-yl)2-fluorophenyl]benzamide]",0.37

# Same assay, conditions: Table 10; 1321N1 cells expressing human P2X4; test substance 15 minutes before ATP; read-out: Inhibitory activity IC50
row,SMILES,IC50 [µM]
1,"O=C1CC(=O)N(c2ccc(NC(=O)c3cccnc3N3CCOCC3)cc2)c2ccc3ccccc3c2N1 [Example 18, N-[4-(2,4-Dioxo-3,4-dihydro-1H-naphtho[1,2-b][1,4]-diazepin-5(2H)-yl)phenyl]-2-(morpholin-4-yl)-nicotinamide hydrochloride]",1.3
